Reference: patent US8092790B2, “Methods of making formulations to affect insect behavior and/or bird behavior” (Bug Buster, Ltd., priority 2003, dated 2012)

How the values were obtained:
[1] = 25° C.; cited from earlier work
[2] = tested on: bees (Panurgus banksianus, P. calacaratus); settings: in vivo; cited from earlier work
mosquito = settings: in vivo; cited from earlier work
bees (Apidae, Psithyrus) = settings: in vivo; cited from earlier work
[3] = tested on: Orius tristicolor (White); settings: on sticky cards; cited from earlier work
[4] = tested on: Deraeocoris brevis (Uhler); settings: on sticky cards; cited from earlier work
[5] = tested on: sunflower seed weevils (Smicronyx spp.); test: Comparison to DEET product, drawing weevils out of sunflower heads; type: in vivo
Description: DEET is often used by entomologists in standard procedures to draw sunflower seed weevils (Smicronyx spp.) out of the heads of sunflowers. In this trial, DEET was provided in the commercially available product DEEP WOODS OFF™ repellent (S.C. Johnson and Son's, Racine, Wis.), which has approximately 28.5% active ingredient; 1.5% other isomers and 70% inert ingredients. Forty-two flowers were randomly selected from interiors of three fields. One-half of the flowers were sprayed with the DEET containing repellent while the remaining flowers were sprayed with the exemplary compound at a concentration of approximately 0.00312% methyl anthranilate, which was combined with long chained fatty acids. The number of sunflower weevils was recorded.

[6] = tested on: mosquito (Aedes aegyptis); test: Mosquito repellency on human subject; type: in vivo; settings: second trial; methyl anthranilate 0.00312%, DEET 0.24%; untreated head covered within one minute
Description: In these trials, DEET was provided in the commercially available product DEEP WOODS OFF™ repellent (S.C. Johnson & Son, Inc., Racine, Wis.), which has approximately 28.5% active ingredient; 1.5% other isomers and 70% inert ingredients.
In a first trial, a human subject was exposed to a mosquito (Aedes aegyptis) rich environment without application of the exemplary compound or DEET. Within less than one minute the subject was covered with the insects. In a second trial, the subject sprayed one unclothed arm with the exemplary compound at a rate of 0.00312% and the other unclothed arm with DEET at a concentration of 0.24%. The subject's head remained untreated. Upon returning to the test area, the subject's head was covered with the insects within one minute. […] In a third trial the subject, after removing the DEET from his/her body, reapplied the exemplary compound to unclothed arms, head and neck before returning to the test area. The subject returned to and remained in the test area for more than one hour without any of the insects landing on his/her arms, hands and head while numerous insects were observed on the clothed portions of his/her anatomy.

[7] = tested on: seed weevil (Smicronyx spp.); test: Comparison to 24% DEET on sunflower seed heads; type: in vivo; settings: composition with 0.006% methyl anthranilate; DEET as 24% solution
Description: An exemplary composition was compared to N,N-Diethyl-m-toluamide (DEET). The exemplary composition included an exemplary compound, methyl anthranilate (e.g., BIRDSHIELD™ at 0.006% methyl anthranilate), and an insecticide, esfenvalerate (e.g., ASANA™). A 24% DEET solution is often used in a standard evaluation process by entomologists for evaluating seed weevil (Smicronyx spp.) infestations.

sand fly = settings: in vivo; cited from earlier work
house fly = settings: in vivo; cited from earlier work
Aenictus = settings: in vivo; cited from earlier work
[8] = tested on: green lacewing (Chrysopa nigricornis Bermeister); settings: in vivo; cited from earlier work
bees (Apis mellifera L.) = settings: in small groups; cited from earlier work
birds = settings: in vivo; cited from earlier work

CC(C)C(C(=O)OC(C#N)c1cccc(Oc2ccccc2)c1)c1ccc(Cl)cc1 (single isomer, unassigned; (+)) [Esfenvalerate, (+)Alpha-cyano-3-phenoxybenzyl-(+)-alpha-(4-chlorophenyl)isovalerate]
water solubility [1]: < 0.3 µg/mL

CCCCCCCO [1-heptanol]
effect on behavior of bees [2]: affect behavior of bees

OCCc1ccccc1 [2-phenyl-ethanol]
effect on behavior of bees [2]: affect behavior of bees

CCCCCCCCCC(C)OC(C)=O (centres unmarked) [2-undecyl acetate]
effect on mosquito (mosquito): mosquito attractant

CC(C)=CCCC(C)CCO (centres unmarked) [3,7-dimethyl-6-octen-1-ol]
effect on behavior of bees (bees (Apidae, Psithyrus)): act as a territory marker

CC/C=C/CCOC(C)=O [(E)-3-hexenyl acetate]
attraction of Orius tristicolor [3]: may be attracted | attraction of Deraeocoris brevis [4]: may be attracted

CCN(CC)C(=O)c1cccc(C)c1 [DEET, N,N-Diethyl-m-toluamide, reference compound]
Number of insects, Mean ([5]; Field No. 1): 4.4 | Number of insects, Total ([5]; Field No. 1): 44 | Number of insects, Mean ([5]; Field No. 2): 12 | Number of insects, Total ([5]; Field No. 2): 37 | Number of insects, Mean ([5]; Field No. 3): 10.3 | Number of insects, Total ([5]; Field No. 3): 86 | water solubility [1]: approximately 912 mg/L | mosquitoes on treated unclothed arm [6]: No mosquitoes were found | insects observed in sprayed sunflower seed heads [7]: No insects were observed

CC1=CCC(C(C)(C)O)CC1 (stereo not drawn) [alpha-terpineol]
effect on sand fly (sand fly): sand fly attractant

CC=CC(C)C(=O)OCC (centres unmarked) [ethyl ester of 2-methyl-3-pentenoic acid]
effect on house fly (house fly): house fly attractant

CC(C)=CCC/C(C)=C/C=O [geranial]
effect on behavior of bees [2]: affect behavior of bees

CC(C)=CCC/C(C)=C/CO [geraniol, 3,7-dimethyl-2,6-octadien-I-ol]
effect on behavior of bees [2]: affect behavior of bees

CC(C)=CCC/C(C)=C/C(=O)O [geranolic acid]
effect on behavior of bees [2]: affect behavior of bees

COC(=O)c1cccnc1 [methyl nicotinate]
semiochemical function for Aenictus (Aenictus): trail semiochemicals

COC(=O)c1ccccc1O [methyl salicylate]
attraction of green lacewing [8]: attract

CC(C)=CCC/C(C)=C\C=O [neral]
effect on behavior of bees [2]: affect behavior of bees

CC(C)=CCC/C(C)=C\CO [nerol]
effect on behavior of bees [2]: affect behavior of bees

CC(C)=CCC/C(C)=C\C(=O)O [nerolicacid]
effect on behavior of bees [2]: affect behavior of bees

CC(=O)c1ccccc1N [o-aminoacetophone, o-aminoacetophenone]
effect on bees (bees (Apis mellifera L.)): repels bees | repellency to birds (birds): exhibit repellency to birds

bisabolene
effect on house fly (house fly): house fly repellent
